Laboratory results reported in patent EP3807270B1, “NOVEL HETEROARYL HETEROCYCLYL COMPOUNDS FOR THE TREATMENT OF AUTOIMMUNE DISEASE” (F. Hoffmann-La Roche AG, priority 2018, dated 2019).

Target: T1, hTLR7 (Homo sapiens, UniProt Q9NYK1)
T1 sequence (Q9NYK1 27-1049): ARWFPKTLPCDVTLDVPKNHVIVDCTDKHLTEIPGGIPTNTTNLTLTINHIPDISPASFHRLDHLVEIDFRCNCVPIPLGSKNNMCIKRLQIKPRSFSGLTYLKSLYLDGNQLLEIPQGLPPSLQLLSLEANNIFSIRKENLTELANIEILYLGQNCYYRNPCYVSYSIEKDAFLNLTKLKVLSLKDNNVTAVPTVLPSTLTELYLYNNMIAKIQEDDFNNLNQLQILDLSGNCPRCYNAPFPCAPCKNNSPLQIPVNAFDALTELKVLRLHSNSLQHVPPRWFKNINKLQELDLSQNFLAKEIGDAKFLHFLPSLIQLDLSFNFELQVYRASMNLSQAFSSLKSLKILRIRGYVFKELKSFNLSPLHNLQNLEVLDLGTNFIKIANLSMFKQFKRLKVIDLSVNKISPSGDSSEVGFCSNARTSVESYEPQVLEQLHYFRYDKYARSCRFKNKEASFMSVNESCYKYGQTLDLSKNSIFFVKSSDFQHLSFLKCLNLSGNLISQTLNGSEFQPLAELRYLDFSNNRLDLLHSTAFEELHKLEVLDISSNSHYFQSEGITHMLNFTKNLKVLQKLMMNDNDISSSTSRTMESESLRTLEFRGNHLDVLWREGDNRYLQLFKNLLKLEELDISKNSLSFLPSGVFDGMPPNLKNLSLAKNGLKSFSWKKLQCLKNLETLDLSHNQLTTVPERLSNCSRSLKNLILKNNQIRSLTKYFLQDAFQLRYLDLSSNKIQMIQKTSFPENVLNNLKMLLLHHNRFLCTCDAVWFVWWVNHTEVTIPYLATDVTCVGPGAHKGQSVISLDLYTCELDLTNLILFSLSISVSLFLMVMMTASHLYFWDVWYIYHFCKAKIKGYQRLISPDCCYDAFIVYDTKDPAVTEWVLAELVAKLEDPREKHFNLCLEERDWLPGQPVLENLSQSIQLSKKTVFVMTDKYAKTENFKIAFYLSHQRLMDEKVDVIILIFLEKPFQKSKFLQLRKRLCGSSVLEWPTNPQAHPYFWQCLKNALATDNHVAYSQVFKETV
Test: HEK293-Blue-hTLR-7 cells assay (SEAP reporter, R848 stimulation)
Assay type: cell-based
Parameters: host or cells: HEK293 (HEK-Blue)
Conditions: HEK293-Blue-hTLR7 cells, R848, 20 hrs; read-out: HEK/hTLR7 IC50
Method in brief: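 HEK293-Blue cells stably expressing human TLR7 with an NF-κB/AP-1-driven SEAP reporter were treated with serially diluted compound (1% DMSO final) plus R848 for 20 h at 37 °C. Supernatant SEAP activity was measured with QUANTI-Blue substrate after 2 h at 37 °C, with absorbance read at 620-655 nm.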

| SMILES | IC50 [nM] |
| --- | --- |
| COC1CNCc2ccc(N3CCN(C[C@H]4CN(c5ccc(C#N)c6ncccc56)C[C@@H](C)O4)CC3)cc21 (stereo partly drawn) [Example 58, 5-[(2S,6R)-2-[[4-(4-methoxy-1,2,3,4-tetrahydroisoquinolin-6-yl)piperazin-1-yl]methyl]-6-methyl-morpholin-4-yl]quinoline-8-carbonitrile] | 16 |
| C[C@@H]1CN(c2ccc(C#N)c3ncccc23)C[C@H](CN2CCN(c3ccc4c(c3)C(O)CN(C)C4)CC2)O1 (stereo partly drawn) [Example 59, 5-[(2S,6R)-2-[[4-(4-hydroxy-2-methyl-3,4-dihydro-1H-isoquinolin-6-yl)piperazin-1-yl]methyl]-6-methyl-morpholin-4-yl]quinoline-8-carbonitrile] | 41 |
| Cc1nc2c(nc1N1CCN(C[C@H]3CN(c4ccc(C#N)c5ncccc45)C[C@@H](C)O3)CC1)CCNC2 [Example 60, 5-[(2R,6S)-2-methyl-6-[[4-(3-methyl-5,6,7,8-tetrahydropyrido[3,4-b]pyrazin-2-yl)piperazin-1-yl]methyl]morpholin-4-yl]quinoline-8-carbonitrile] | 11 |
| C[C@@H]1CN(c2ccc(C#N)c3ncccc23)C[C@H](CN2CCN(c3ncnc4c3CNCC4)CC2)O1 [Example 61, 5-[(2R,6S)-2-methyl-6-[[4-(5,6,7,8-tetrahydropyrido[4,3-d]pyrimidin-4-yl)piperazin-1-yl]methyl]morpholin-4-yl]quinoline-8-carbonitrile] | 5 |
| C[C@@H]1CN(c2ccc(C#N)c3ncccc23)C[C@H](CN2CCN(c3nccc4c3CCNC4)CC2)O1 [Example 62, 5-[(2R,6S)-2-methyl-6-[[4-(5,6,7,8-tetrahydro-2,6-naphthyridin-1-yl)piperazin-1-yl]methyl]morpholin-4-yl]quinoline-8-carbonitrile] | < 3 |
| C[C@@H]1CN(c2ccc(C#N)c3ncccc23)C[C@H](CN2CCN(c3ccc4c(n3)CNCC4)CC2)O1 [Example 69, 5-[(2R,6S)-2-methyl-6-[[4-(5,6,7,8-tetrahydro-1,7-naphthyridin-2-yl)piperazin-1-yl]methyl]morpholin-4-yl]quinoline-8-carbonitrile] | 12 |
| C[C@@H]1CN(c2ccc(C#N)c3nccnc23)C[C@H](CN2CCN(c3cc4c(cn3)CCNC4)CC2)O1 [Example 80, 8-[(2R,6S)-2-methyl-6-[[4-(5,6,7,8-tetrahydro-2,6-naphthyridin-3-yl)piperazin-1-yl]methyl]morpholin-4-yl]quinoxaline-5-carbonitrile] | 8 |
| COc1ccc(N2CCN(C[C@H]3CN(c4ccc(C#N)c5ncccc45)C[C@@H](C)O3)CC2)cc1 [Example R1, 5-[(2S,6R)-2-[[4-(4-methoxyphenyl)piperazin-1-yl]methyl]-6-methyl-morpholin-4-yl]quinoline-8-carbonitrile, reference compound] | 95 |
| C[C@@H]1CN(c2ccc(C#N)c3ncccc23)C[C@H](CN2CCN(c3ccc(Cl)cc3)CC2)O1 [Example R2, 5-[(2S,6R)-2-[[4-(4-chlorophenyl)piperazin-1-yl]methyl]-6-methyl-morpholin-4-yl]quinoline-8-carbonitrile, reference compound] | 210 |
